Structures are written as SMILES.

This series concerns the target T1, stearoyl-CoA desaturase (SCD) (Mus musculus, UniProt P13516).
T1 sequence (P13516 1-355): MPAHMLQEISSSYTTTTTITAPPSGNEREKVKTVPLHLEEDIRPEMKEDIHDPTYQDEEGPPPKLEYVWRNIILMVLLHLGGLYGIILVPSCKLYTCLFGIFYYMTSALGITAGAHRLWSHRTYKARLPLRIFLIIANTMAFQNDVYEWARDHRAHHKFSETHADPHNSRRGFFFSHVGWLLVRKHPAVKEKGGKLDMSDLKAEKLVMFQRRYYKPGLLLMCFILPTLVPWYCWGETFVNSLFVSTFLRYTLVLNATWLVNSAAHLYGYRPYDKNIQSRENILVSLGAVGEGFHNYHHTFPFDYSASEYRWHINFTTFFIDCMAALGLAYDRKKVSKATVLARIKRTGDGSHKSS
The series can be described thus: Stearoyl-CoA desaturase inhibition using mouse liver microsomes (HTS microsomal assay, IC50 follow-up). As to conditions: % SCD enzyme activity remaining at 10 μM test compound. (In general: Microsomes from liver hold many membrane-bound enzymes, among them those of drug oxidation.)
Method: Livers are immediately rinsed with cold 0.9% NaCl solution, weighed and minced with scissors. All procedures are performed at 4° C. unless specified otherwise. Livers are homogenized in a solution (1:3 w/v) containing 0.25 M sucrose, 62 mM potassium phosphate buffer (pH 7.0), 0.15 M KCl, 1.5 mM N-acetyleysteine, 5 mM MgCl2, and 0.1 mM EDTA using 4 strokes of a Potter-Elvehjem tissue homogenizer. The homogenate is centrifuged at 10,400×g for 20 min to eliminate mitochondria and cellular debris. The supernatant is filtered through a 3-layer cheesecloth and centrifuged at 105,000×g for 60 min. The microsomal pellet is gently resuspended in the same homogenization solution with a small glass/teflon homogenizer and stored at −70° C. The absence of mitochondrial contamination is enzymatically assessed. The protein concentration is measured using bovine serum albumin as the standard.
The tubes are vortexed vigorously and after 15 min incubation in a shaking water bath (37° C.), the reactions are stopped and fatty acids are analyzed.
Fatty acids are analyzed as follows: The reaction mixture is saponified with 10% KOH to obtain free fatty acids which are further methylated using BF3 in methanol. […] Fatty acid methyl esters are separated isocratically with acetonitrile/water (95:5 v:v) at a flow rate of 1 mL/min and are identified by comparison with authentic standards.
The compounds are analyzed with an HTS microsomal assay. The activities are defined in terms of % SCD enzyme activity remaining at the selected concentration (e.g., 10 μM) of the test compounds.
With `O=C(NCCC1CC1)c1ccc(N2CCN(C(=O)c3cc(Cl)ccc3C(F)(F)F)CC2)nn1` [6-[4-(5-CHLORO-2-TRIFLUOROMETHYLBENZOYL)PIPERAZIN-1-YL]PYRIDAZINE-3-CARBOXYLIC ACID (2-CYCLOPROPYLETHYL)AMIDE], the “Mouse Microsome 10% remaining @ 10 μM” value was determined as 12%.

On to `COC(=O)C(CC(C)C)NC(=O)c1ccc(N2CCN(C(=O)c3ccccc3C(F)(F)F)CC2)nn1` (stereo not drawn) [4-METHYL-2-({6-[4-(2-TRIFLUOROMETHYLBENZOYL)PIPERAZIN-1-YL]-PYRIDAZINE-3-CARBONYL}AMINO)PENTANOIC ACID METHYL ESTER], for which the “Mouse Microsome 10% remaining @ 10 μM” value was found to be 69%.

Regarding `CC(C)(C)OC(=O)N1CCN(c2ccc(C(=O)NCCC3CC3)nn2)CC1` [4-[6-(2-CYCLOPROPYLETHYLCARAMOYL)PYRIDAZIN-3-YL]PIPERAZINE-1-CARBOXYLIC ACID T-BUTYL ESTER], the “Mouse Microsome 10% remaining @ 10 μM” value turned out to be 37%.

Take `O=C(NCCC1CC1)c1ccc(N2CCN(Cc3ccc(F)cc3C(F)(F)F)CC2)nn1` [6-[4-(4-FLUORO-2-TRIFLUOROMETHYLBENZYL)-PIPERAZIN-1-YL]PYRIDAZINE-3-CARBOXYLIC ACID (2-CYCLOPROPYLETHYL)AMIDE]: the “Mouse Microsome 10% remaining @ 10 μM” value stood at 12%.

As for `O=C(NCCc1ccccc1)c1ccc(N2CCN(C(=O)c3ccccc3C(F)(F)F)CC2)nn1` [6-[4-(2-Trifluoromethylbenzoyl)piperazin-1-yl]pyridazine-3-carboxylic acid phenethylamide], the “Mouse Microsome 10% remaining @ 10 μM” value is given as 0%.

Turning to `O=C(NCCc1ccccc1)Nc1ccc(N2CCN(C(=O)c3ccccc3C(F)(F)F)CC2)nn1`, the “Mouse Microsome 10% remaining @ 10 μM” value worked out at 15%.

As to `O=C(Nc1ccc(N2CCN(C(=O)c3ccccc3C(F)(F)F)CC2)nn1)Nc1ccccc1F` [1-(2-FLUOROPHENYL)-3-{6-[4-(2-TRIFLUOROMETHYLBENZOYL)PIPERAZIN-1-YL]-PYRIDAZIN-3-YL}UREA], the “Mouse Microsome 10% remaining @ 10 μM” value is reported as 73%.

Turning to `O=C(Nc1ccc(F)cc1)Nc1ccc(N2CCN(C(=O)c3ccccc3C(F)(F)F)CC2)nn1` [1-(4-FLUOROPHENYL)-3-{6-[4-(2-TRIFLUOROMETHYLBENZOYL)PIPERAZIN-1-YL]-PYRIDAZIN-3-YL}UREA], the “Mouse Microsome 10% remaining @ 10 μM” value is recorded as 82%.

Consider `CC(=CC(=O)N1CCN(c2ccc(C(=O)NCCC(C)C)nn2)CC1)C(F)(F)F` [6-[4-(4,4,4-TRIFLUORO-3-METHYLBUT-2-ENOYL)PIPERAZIN-1-YL]-PYRIDAZINE-3-CARBOXYLIC ACID (3-METHYLBUTYL)AMIDE], for which the “Mouse Microsome 10% remaining @ 10 μM” value is on record as 9%.

Take `CC(C)CCNC(=O)c1ccc(N2CCN(C(=O)c3nnn(Cc4ccccc4)c3C(F)(F)F)CC2)nn1` [6-[4-(1-BENZYL-5-TRIFLUOROMETHYL-1H-[1,2,3]TRIAZOLE-4-CARBONYL)-PIPERAZIN-1-YL]PYRIDAZINE-3-CARBOXYLIC ACID (3-METHYLBUTYL)AMIDE]: the “Mouse Microsome 10% remaining @ 10 μM” value stood at 61%.

As to `CC(C)CCNC(=O)c1ccc(N2CCN(C(=O)c3c(C(F)(F)F)nnn3Cc3ccccc3)CC2)nn1` [6-[4-(3-BENZYL-5-TRIFLUOROMETHYL-3H-[1,2,3]TRIAZOLE-4-CARBONYL)PIPERAZIN-1-YL]PYRIDAZINE-3-CARBOXYLIC ACID (3-METHYLBUTYL)AMIDE], the “Mouse Microsome 10% remaining @ 10 μM” value was found to be 61%.

Regarding `CC(C)CCNC(=O)c1ccc(N2CCN(C(=O)c3cnccc3C(F)(F)F)CC2)nn1` [6-[4-(4-TRIFLUOROMETHYLPYRIDINE-3-CARBONYL)PIPERAZIN-1-YL]PYRIDAZINE-3-CARBOXYLIC ACID (3-METHYLBUTYL)AMIDE], the “Mouse Microsome 10% remaining @ 10 μM” value came out at 8%.

Take `CC(=O)Oc1ccccc1C(=O)N1CCN(c2ccc(C(=O)NCCC3CC3)nn2)CC1` [ACETIC ACID 2-{4-[6-(2-CYCLOPROPYLETHYLCARAMOYL)PYRIDAZIN-3-YL]-PIPERAZINE-1-CARBONYL}PHENYL ESTER]: the “Mouse Microsome 10% remaining @ 10 μM” value worked out at 46%.

As for `O=C(NCCC1CC1)c1ccc(N2CCN(Cc3cc(Cl)ccc3C(F)(F)F)CC2)nn1` [6-[4-(5-CHLORO-2-TRIFLUOROMETHYLBENZYL)PIPERAZIN-1-YL]PYRIDAZINE-3-CARBOXYLIC ACID (2-CYCLOPROPYLETHYL)AMIDE], the “Mouse Microsome 10% remaining @ 10 μM” value is on record as 7%.

Regarding `CC(C)CCNC(=O)c1ccc(N2CCN(C(=O)C3(C(F)(F)F)CC3)CC2)nn1` [6-[4-(1-TRIFLUOROMETHYLCYCLOPROPANECARBONYL)PIPERAZIN-1-YL]-PYRIDAZINE-3-CARBOXYLIC ACID (3-METHYLBUTYL)AMIDE], the “Mouse Microsome 10% remaining @ 10 μM” value came to 26%.

On to `CC(C)CCNC(=O)c1ccc(N2CCN(C(=O)c3ccccc3N)CC2)nn1` [6-[4-(2-AMINOBENZOYL)PIPERAZIN-1-YL]PYRIDAZINE-3-CARBOXYLIC ACID (3-METHYLBUTYL)AMIDE], for which the “Mouse Microsome 10% remaining @ 10 μM” value stood at 23%.

For `CC(C)CCNC(=O)c1ccc(N2CCN(C(=O)c3ccccc3[N+](=O)[O-])CC2)nn1` [6-[4-(2-NITROBENZOYL)PIPERAZIN-1-YL]PYRIDAZINE-3-CARBOXYLIC ACID (3-METHYLBUTYL)AMIDE], the “Mouse Microsome 10% remaining @ 10 μM” value is recorded as 8%.

Turning to `CC(C)CCNC(=O)c1ccc(N2CCN(C(=O)N3CCN(C)CC3)CC2)nn1` [6-[4-(4-METHYLPIPERAZINE-1-CARBONYL)PIPERAZIN-1-YL]PYRIDAZIN E-3-CARBOXYLIC ACID (3-METHYLBUTYL)AMIDE], the “Mouse Microsome 10% remaining @ 10 μM” value came out at 29%.

`O=C(NCCc1ccc(F)cc1F)c1ccc(N2CCN(C(=O)c3ccccc3C(F)(F)F)CC2)nn1` [6-[4-(2-TRIFLUOROMETHYLBENZOYL)PIPERAZIN-1-YL]PYRIDAZINE-3-CARBOXYLIC ACID [2-(2,4-DIFLUOROPHENYL)ETHYL]AMIDE]: the “Mouse Microsome 10% remaining @ 10 μM” value came out at 5%.

Take `O=C(NCCCc1ccc(F)cc1)Nc1ccc(N2CCN(C(=O)c3ccccc3C(F)(F)F)CC2)nn1` [1-[3-(4-Fluorophenyl)propyl]-3-{6-[4-(2-trifluoromethylbenzoyl)piperazin-1-yl]pyridazin-3-yl}urea]: the “Mouse Microsome 10% remaining @ 10 μM” value was 14%.

For the molecule `CC(C)CCNC(=O)c1ccc(N2CCN(C(=O)CC(C)C(F)(F)F)CC2)nn1` (stereo not drawn) [6-[4-(4,4,4-TRIFLUORO-3-METHYLBUTYRYL)PIPERAZIN-1-YL]PYRIDAZINE-3-CARBOXYLIC ACID (3-METHYLBUTYL)AMIDE], the “Mouse Microsome 10% remaining @ 10 μM” value was 11%.

For `O=C(NCCC1CC1)c1ccc(N2CCN(Cc3ccc(Cl)cc3Cl)CC2)nn1` [6-[4-(2,4-DICHLOROBENZYL)-PIPERAZIN-1-YL]PYRIDAZINE-3-CARBOXYLIC ACID (2-CYCLOPROPYLETHYL)AMIDE], the “Mouse Microsome 10% remaining @ 10 μM” value came to 8%.

As for `O=C(NCCC1CC1)c1ccc(N2CCN(C(=O)c3cc(C(F)(F)F)ccc3C(F)(F)F)CC2)nn1` [6-[4-(2,5-BIS-TRIFLUOROMETHYLBENZOYL)PIPERAZIN-1-YL]PYRIDAZINE-3-CARBOXYLIC ACID (2-CYCLOPROPYLETHYL)AMIDE], the “Mouse Microsome 10% remaining @ 10 μM” value is listed as 6%.

Take `O=C(NCCC1CC1)c1ccc(N2CCN(Cc3cc(F)ccc3C(F)(F)F)CC2)nn1` [6-[4-(5-FLUORO-2-TRIFLUOROMETHYLBENZYL)PIPERAZIN-1-YL]PYRIDAZINE-3-CARBOXYLIC ACID (2-CYCLOPROPYLETHYL)AMIDE]: the “Mouse Microsome 10% remaining @ 10 μM” value came to 3%.

Source of the values: patent US7964591B2, “Pyridazine derivatives and their use as therapeutic agents” (Novartis Pharma AG, priority 2003, dated 2011).
